Test results: paper PMC3234597, “Two Panels of Steroid Receptor Luciferase Reporter Cell Lines for Compound Profiling” (Combinatorial Chemistry & High Throughput Screening, 2011)
“Also recorded” adds a separate entry of the source.

Key:
Format in all cases: cell-based
human GR (full-length) [1] = target: T1, human GR (full-length) (Homo sapiens, UniProt P04150); experiment: U2OS-GR/MMTV luciferase reporter cell line (full-length receptor)
T1 construct: expression vectors encoding full-length steroid receptors: pcDNA3-hAR and pcDNA3-hGR; host or cells: U2OS
T1 sequence (P04150 1-777): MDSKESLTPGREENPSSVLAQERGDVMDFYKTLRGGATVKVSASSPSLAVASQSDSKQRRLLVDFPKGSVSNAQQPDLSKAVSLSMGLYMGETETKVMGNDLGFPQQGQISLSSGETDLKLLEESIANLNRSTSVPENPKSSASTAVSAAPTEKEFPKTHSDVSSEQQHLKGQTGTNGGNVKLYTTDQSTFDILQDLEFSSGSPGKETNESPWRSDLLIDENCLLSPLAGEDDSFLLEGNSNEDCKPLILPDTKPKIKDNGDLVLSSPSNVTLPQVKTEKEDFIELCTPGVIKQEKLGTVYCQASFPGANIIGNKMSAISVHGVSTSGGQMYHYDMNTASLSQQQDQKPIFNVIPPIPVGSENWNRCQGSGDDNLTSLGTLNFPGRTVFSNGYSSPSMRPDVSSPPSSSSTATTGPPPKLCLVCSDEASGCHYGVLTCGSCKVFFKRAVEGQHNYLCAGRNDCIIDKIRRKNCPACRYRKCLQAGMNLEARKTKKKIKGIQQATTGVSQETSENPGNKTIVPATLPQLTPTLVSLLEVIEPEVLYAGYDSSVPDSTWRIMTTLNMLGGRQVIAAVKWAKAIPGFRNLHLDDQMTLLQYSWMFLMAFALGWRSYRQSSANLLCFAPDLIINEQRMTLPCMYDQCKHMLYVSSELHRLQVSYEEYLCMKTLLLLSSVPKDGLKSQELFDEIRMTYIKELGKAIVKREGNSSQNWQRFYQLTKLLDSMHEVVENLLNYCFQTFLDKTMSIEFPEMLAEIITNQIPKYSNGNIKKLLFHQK

MR-LBD fused to Gal4-DBD = target: T2, MR-LBD fused to Gal4-DBD (Homo sapiens, UniProt P08235); experiment: U2OS-MR-LBD/9xGal4UAS luciferase reporter cell line; settings: for activity profile in words: MR-LBD expressing reporter cell line, agonist and antagonist mode; for EC50: read-out: Log EC50 (converted)
T2 construct: MR-LBD was cloned by RT-PCR from total RNA isolated from HEK293 cells; expressed in transfected cells; host or cells: U2OS
T2 sequence (P08235 726-964 limits assumed): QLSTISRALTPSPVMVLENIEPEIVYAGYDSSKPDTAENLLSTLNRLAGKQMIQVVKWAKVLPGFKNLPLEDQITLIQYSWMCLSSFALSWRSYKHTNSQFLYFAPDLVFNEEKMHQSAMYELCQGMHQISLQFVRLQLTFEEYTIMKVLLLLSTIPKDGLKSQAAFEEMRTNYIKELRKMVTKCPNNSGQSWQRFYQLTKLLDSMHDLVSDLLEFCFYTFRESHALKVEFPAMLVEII

human MR (full-length) = target: T3, human MR (full-length) (Homo sapiens, UniProt P08235); experiment: U2OS-MR/MMTV luciferase reporter cell line (full-length receptor); settings: for activity profile in words: full-length MR format; for EC50: read-out: Log EC50 (converted)
T3 construct: expression vectors encoding full-length steroid receptors: pcDNA3-hAR, pcDNA3-hGR and pcDNA3-hMR; expressed in transfected cells; host or cells: U2OS
T3 sequence (P08235 1-984): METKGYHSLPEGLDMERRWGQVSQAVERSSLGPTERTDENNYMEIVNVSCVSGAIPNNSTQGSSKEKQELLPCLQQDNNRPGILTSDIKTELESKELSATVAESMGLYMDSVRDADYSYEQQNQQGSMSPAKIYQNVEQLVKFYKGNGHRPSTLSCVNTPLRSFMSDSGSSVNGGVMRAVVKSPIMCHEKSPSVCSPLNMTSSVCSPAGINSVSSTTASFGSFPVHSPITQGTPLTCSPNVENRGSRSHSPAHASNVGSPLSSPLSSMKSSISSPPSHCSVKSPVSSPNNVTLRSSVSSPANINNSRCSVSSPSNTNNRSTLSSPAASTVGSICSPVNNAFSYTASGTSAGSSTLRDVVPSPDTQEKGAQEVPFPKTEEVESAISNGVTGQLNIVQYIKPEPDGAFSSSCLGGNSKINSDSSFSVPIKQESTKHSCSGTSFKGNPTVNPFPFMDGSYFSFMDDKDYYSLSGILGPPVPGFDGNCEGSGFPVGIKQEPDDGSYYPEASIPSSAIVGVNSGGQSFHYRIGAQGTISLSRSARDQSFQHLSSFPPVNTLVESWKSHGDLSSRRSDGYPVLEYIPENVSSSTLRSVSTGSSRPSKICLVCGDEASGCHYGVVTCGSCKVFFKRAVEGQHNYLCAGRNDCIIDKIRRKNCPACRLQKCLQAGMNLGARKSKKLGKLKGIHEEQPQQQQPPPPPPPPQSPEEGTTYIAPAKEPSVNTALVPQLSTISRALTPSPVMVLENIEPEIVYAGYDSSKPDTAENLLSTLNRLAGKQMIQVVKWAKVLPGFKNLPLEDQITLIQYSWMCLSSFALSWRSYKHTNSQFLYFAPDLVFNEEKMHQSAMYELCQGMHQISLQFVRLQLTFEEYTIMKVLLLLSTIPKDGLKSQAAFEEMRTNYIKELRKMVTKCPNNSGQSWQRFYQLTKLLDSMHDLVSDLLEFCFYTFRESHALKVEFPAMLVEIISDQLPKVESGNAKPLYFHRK

human GR (full-length) [2] = target: T1, human GR (full-length); experiment: U2OS-GR/3xGRE luciferase reporter cell line (full-length receptor)
GR-LBD fused to Gal4-DBD = target: T4, GR-LBD fused to Gal4-DBD (Homo sapiens, UniProt P04150); experiment: U2OS-GR-LBD/9xGal4UAS luciferase reporter cell line
T4 construct: expressed in transfected cells; host or cells: U2OS
T4 sequence (P04150 524-758 limits assumed): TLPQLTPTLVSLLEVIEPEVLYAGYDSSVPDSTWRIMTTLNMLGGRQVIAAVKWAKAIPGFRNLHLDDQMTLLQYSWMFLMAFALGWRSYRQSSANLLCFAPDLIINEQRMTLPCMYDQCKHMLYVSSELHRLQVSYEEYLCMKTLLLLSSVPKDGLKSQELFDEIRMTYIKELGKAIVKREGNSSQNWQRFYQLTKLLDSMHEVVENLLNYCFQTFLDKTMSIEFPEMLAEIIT

PR-LBD fused to Gal4-DBD = target: T5, PR-LBD fused to Gal4-DBD (Homo sapiens, UniProt P06401); experiment: U2OS-PR-LBD/9xGal4UAS luciferase reporter cell line; settings: for IC50: antagonist mode, PR-LBD/9xGal4UAS, log10 of molar IC50, mean ± SEM, read-out: Log IC50 (converted); for EC50: read-out: Log EC50 (converted)
T5 construct: PR-LBD region was PCR amplified using the following primer combination; host or cells: U2OS
T5 sequence (P06401 679-913 limits assumed): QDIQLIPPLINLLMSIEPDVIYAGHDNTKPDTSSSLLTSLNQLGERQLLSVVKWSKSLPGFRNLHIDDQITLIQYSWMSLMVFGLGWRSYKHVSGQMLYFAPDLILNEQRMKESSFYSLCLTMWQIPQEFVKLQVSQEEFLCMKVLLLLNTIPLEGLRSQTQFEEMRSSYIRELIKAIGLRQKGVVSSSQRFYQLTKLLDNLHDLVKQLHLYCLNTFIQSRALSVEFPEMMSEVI

[3] = target: T6, ERβ-LBD fused to Gal4-DBD (Homo sapiens, UniProt Q92731); experiment: U2OS-ERβ-LBD/9xGal4UAS luciferase reporter cell line; settings: read-out: Log EC50 (converted)
T6 construct: region comprising ERβ-LBD and a piece of the hinge region; expressed in transfected cells; host or cells: U2OS

human ERβ (full-length) = target: T7, human ERβ (full-length) (Homo sapiens, UniProt Q92731); experiment: U2OS-ERβ/3xERE luciferase reporter cell line (full-length receptor); settings: for EC50: read-out: Log EC50 (converted)
T7 construct: expression vectors encoding full-length steroid receptors: pcDNA3-hERα and pcDNA3-ERβ; expressed in transfected cells; host or cells: U2OS
T7 sequence (Q92731 whole entry): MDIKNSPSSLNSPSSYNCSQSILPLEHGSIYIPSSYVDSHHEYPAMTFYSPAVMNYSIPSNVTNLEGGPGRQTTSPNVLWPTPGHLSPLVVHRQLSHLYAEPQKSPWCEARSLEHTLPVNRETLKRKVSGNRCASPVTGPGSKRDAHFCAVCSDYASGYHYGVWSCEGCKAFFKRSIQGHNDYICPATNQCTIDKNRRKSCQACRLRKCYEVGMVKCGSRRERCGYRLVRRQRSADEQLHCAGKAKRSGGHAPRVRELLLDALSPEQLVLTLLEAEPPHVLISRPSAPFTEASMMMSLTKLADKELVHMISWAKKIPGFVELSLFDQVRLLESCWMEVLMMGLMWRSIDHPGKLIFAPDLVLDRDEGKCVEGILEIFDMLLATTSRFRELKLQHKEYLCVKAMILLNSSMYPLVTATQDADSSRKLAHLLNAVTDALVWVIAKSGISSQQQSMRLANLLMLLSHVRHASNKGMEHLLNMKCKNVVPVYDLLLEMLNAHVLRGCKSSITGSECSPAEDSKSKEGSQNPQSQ

T6 sequence (Q92731 264-498 limits assumed): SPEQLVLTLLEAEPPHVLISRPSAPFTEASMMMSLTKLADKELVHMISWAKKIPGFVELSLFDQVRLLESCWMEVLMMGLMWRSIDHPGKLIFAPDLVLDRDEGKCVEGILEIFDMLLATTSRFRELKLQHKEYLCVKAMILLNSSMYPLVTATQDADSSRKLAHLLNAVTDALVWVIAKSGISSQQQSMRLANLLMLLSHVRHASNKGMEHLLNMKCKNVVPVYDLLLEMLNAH

Molecule	IC50 (PR-LBD fused to Gal4-DBD) [µM]	EC50 (PR-LBD fused to Gal4-DBD) [µM]	EC50 [3] [µM]	EC50 (human ERβ (full-length)) [µM]	activity profile in words (MR-LBD fused to Gal4-DBD)	activity profile in words (human MR (full-length); antagonist mode)	EC50 (MR-LBD fused to Gal4-DBD) [µM]	EC50 (human MR (full-length)) [µM]	further results
4-hydroxy-tamoxifen	–	–	–	–	–	–	–	–	Log EC50 (human GR (full-length) [1]; agonist mode, GR/MMTV, 20 h, log10 of molar EC50, mean ± SEM): > -5.00 M; Log IC50 (human GR (full-length) [1]; antagonist mode, GR/MMTV, in the presence of 5 nM dexamethasone, log10 of molar IC50, mean ± SEM): > -5.00 M; Log EC50 (MR-LBD fused to Gal4-DBD; agonist mode, MR-LBD/9xGal4UAS, 20 h, log10 of molar EC50, mean ± SEM): > -5.00 M; Log IC50 (MR-LBD fused to Gal4-DBD; antagonist mode, MR-LBD/9xGal4UAS, in the presence of 1 nM aldosterone, log10 of molar IC50, mean ± SEM): > -5.00 M; Log EC50 (human MR (full-length); agonist mode, MR/MMTV, 20 h, log10 of molar EC50, mean ± SEM): > -5.00 M; Log IC50 (human MR (full-length); antagonist mode, MR/MMTV, in the presence of 1 nM aldosterone, log10 of molar IC50, mean ± SEM): > -5.00 M; Log EC50 (human GR (full-length) [2]; agonist mode, GR/3xGRE, 20 h, log10 of molar EC50, mean ± SEM): > -5.00 M; Log IC50 (human GR (full-length) [2]; antagonist mode, GR/3xGRE, in the presence of 5 nM dexamethasone, log10 of molar IC50, mean ± SEM): > -5.00 M; Log EC50 (GR-LBD fused to Gal4-DBD; agonist mode, GR-LBD/9xGal4UAS, 20 h, log10 of molar EC50, mean ± SEM): > -5.00 M; Log IC50 (GR-LBD fused to Gal4-DBD; antagonist mode, GR-LBD/9xGal4UAS, in the presence of 5 nM dexamethasone, log10 of molar IC50, mean ± SEM): > -5.00 M
CC(=O)C1(O)CCC2C3CCC4=CC(=O)CCC4(C)C3CCC21C (stereo not drawn) [17α-hydroxyprogesterone]	> 10	> 10	> 10	> 10	–	–	–	–	EC50 (human GR (full-length) [1]; read-out: Log EC50 (converted)): > 10 µM; EC50 (human GR (full-length) [2]; read-out: Log EC50 (converted)): > 10 µM; EC50 (GR-LBD fused to Gal4-DBD; read-out: Log EC50 (converted)): > 10 µM
C[C@H]1C[C@H]2[C@@H]3CCC4=CC(=O)C=C[C@]4(C)[C@@]3(F)[C@@H](O)C[C@]2(C)[C@@]1(O)C(=O)CO [Betamethasone, betamethasone]	> 10	4.79	–	–	only weakly and partially activated; also recorded: pronounced full antagonist effect	no sign of antagonistic activity	–	–	–
CC(=O)O[C@]1(C(C)=O)CC[C@H]2[C@@H]3C=C(Cl)C4=CC(=O)[C@@H]5C[C@@H]5[C@]4(C)[C@H]3CC[C@@]21C [Cyproterone acetate, cyproterone acetate]	–	–	> 10	> 10	–	–	> 10	> 10	luciferase activity in ERβ reporter cell lines (human ERβ (full-length); ERβ reporter cell lines, even at 10 μM concentration): did not find any sign of luciferase activity
CC/C(=C(/CC)c1ccc(O)cc1)c1ccc(O)cc1 [DES, Diethylstilbestrol]	–	–	–	–	–	–	> 10	> 10	–
C[C@@H]1C[C@H]2[C@@H]3CCC4=CC(=O)C=C[C@]4(C)[C@@]3(F)[C@@H](O)C[C@]2(C)[C@@]1(O)C(=O)CO [Dexamethasone, dexamethasone]	> 10	4.79	–	–	only weakly and partially activated; also recorded: pronounced full antagonist effect	no sign of antagonistic activity	–	–	–
